Source: US7863242B2, “Compositions for down-regulation of CCR5 expression and methods of use thereof” (priority 2003, dated 2011)

Columns and labels:
[1] = system: HIV-1 ADA; assay: microbe, parasite or virus in culture
Procedure: Infectivity Assays: The following viruses were used in infection experiments: HIV-1 IIIb, HIV-1 ADA, HIV-1 BaL, HIV-1 JRFL, HIV-1 JRCSF, and HIV-1 SF162. HIV-1 IIIb is a T cell line-adapted lab strain that uses CXCR4 for entry into cells, whereas the rest are isolates that use CCR5. Viruses were obtained from the National Institutes of Health AIDS Research and Reference Reagent Program.
For infection of PBMCs, fresh donor PBMCs were cultured for 7 days in medium containing IL-2. On day 7, cells were exposed to the virus for 3 h. Nonadsorbed virus was removed by washing cells with PBS three times. Infected cells were cultured in IL-2 medium. Infection of MDMs was carried out as described before (Perno, 1993). Unless otherwise indicated, PBMCs were infected by using an moi of 0.001, and MDM were infected by using an moi of 0.002. Virus growth was monitored in culture supernatants by measuring p24 antigen levels by ELISA (NEN) or by measuring viral RT activity in an RT assay (Willey, 1988).
Antiviral Activity of RAPA in PBMCs: The antiviral activity of RAPA was assayed in PBMCs that had been cultured in the presence of RAPA for 7 days before infection. Cells were infected with the X4 HIV-1 IIIb and the R5 HIV-1 ADA strains. Infected cells were cultured in the presence of RAPA (same concentration as during pretreatment) for 7 additional days, during which time virus replication and cell viability were measured.
To test this hypothesis, donor PBMCs were cultured in IL-2 medium in the absence or presence of RAPA (1, 10, and 100 nM). […] Infected cells were cultured in the presence of RAPA (same concentration as during pretreatment) plus 0.1 nM TAK-779. Virus production was determined 7 days after infection.
Donor PBMCs were cultured in IL-2 medium in the absence or presence of HU (0 and 10 uM). After 7 days, cells were infected with HIV-1 ADA. Infected cells were cultured in the presence of HU (same concentration as during pretreatment) plus different concentration of TAK-779 ranging from 0, 2 and 20 nM). Virus production was determined 7 days after infection.
In order to determine the nature and degree of interaction between RAPA and T20, infectivity assays were performed in the presence of the drugs, alone and in combination. The infectivity assays were performed using PBMCs from healthy donors. PBMCs were cultured for 7 days in the presence of IL-2 (100 U/ml) in the presence or absence of RAPA. On day 7, cells were infected by exposure to the R5 strain HIV-1 ADA (m.o.i of 0.001) for 2 h. Non-adsorbed virus was removed by 3 washes with PBS. Infected cells were then plated in RPMI-10 supplemented with IL-2 (100 U/ml) in the presence of different concentrations of RAPA and T20. Each drug concentration was tested in triplicate. Medium was changed in day 3 after infection and drugs were added at the same concentration as before. On day 7 after infection, virus production was measured in the culture supernatants using a commercial p24 antigen ELISA (NCI, Frederick). Cell viability was determined using the MTT assay (Roche).
The antiviral data was then analyzed for synergy using two different methodologies, the Median Effect principle and Three Dimensional modeling.

[2] = system: HIV-1 ADA; assay: Serial passage of HIV-1 ADA in PBMCs, emergence of T20 resistance (RT assay); assay type: cell-based
Procedure: HIV-1 ADA was passaged in PBMCs 21 times in the presence of RAPA, T-20 or RAPA+T20. After every passage, virus content in the culture supernatant was measured using the RT assay.
HIV-1 replication in the presence of T20 leads to the emergence of drug resistant strains in vitro and in vivo, and this resistance is associated with mutations in the aa 36-45 of gp 41. […] To this end, HIV-1 ADA was passaged weekly for 24 weeks in the presence of RAPA, T20 and RAPA/T20 combined.

Compound | reduction of p24 levels ([1]; 2 nM of TAK-779 alone, day 7 after infection) | inhibition at 0.0001 µM ([1]; Human immunodeficiency virus 1, PBMC, 168 h, read-out: inhibition of virus replication) | Fa (fractional inhibition) ([1]; T-20 1.5 nM alone, p24 day 7) | Fa (fractional inhibition) ([1]; T-20 3.12 nM alone, p24 day 7) | Fa (fractional inhibition) ([1]; T-20 6.25 nM alone, p24 day 7) | Fa (fractional inhibition) ([1]; T-20 12.5 nM alone, p24 day 7) | Fa (fractional inhibition) ([1]; T-20 25 nM alone, p24 day 7) | Fa (fractional inhibition) ([1]; T-20 50 nM alone, p24 day 7) | IC50 ([1]; read-out: Dm (dose at 50% inhibition, equivalent to IC50 value), drug used alone, p24 day 7) | antiviral activity on passaged virus ([2]; T20 100 nM, from the 11th passage onwards) | sensitivity of passaged virus to T20 ([2]; T20 alone, 10th passage) | inhibition of virus replication ([2]; T20 alone, initial 9 passages)
Cc1ccc(-c2ccc3c(c2)C=C(C(=O)Nc2ccc(C[N+](C)(C)C4CCOCC4)cc2)CCC3)cc1.[Cl-] [TAK-779, N,N-dimethyl-N-[4-[[[2-(4-methylphenyl)-6,7-dihydro-5H-benzocyclohepten-8-yl]carbonyl]amino]benzyl]tetrahydro-2H-pyran-4-aminium chloride] | about 20% | 21% |  |  |  |  |  |  |  |  |  | 
enfuvirtide |  |  | 0.210 | 0.260 | 0.400 | 0.600 | 0.810 | 0.980 | 6.16 nM | did not exert antiviral activity | reduced sensitivity to T20 | > 75%
